{"source": "paper PMC9850473", "about": "“Three-Component Reaction of 3-Formyl-6-Methylchromone, Primary Amines, and Secondary Phosphine Oxides: A Synthetic and Mechanistic Study” (ACS Omega, 2022)", "key": {"[1]": {"assay": "In vitro cytotoxicity, fluorescent Resazurin assay, HL60", "details": "human, HL60 (HL-60) promyelocytic leukemia cells, In vitro cytotoxicity [IC50, μM] HL60, HL60 cells, 72 h incubation, 1–30 μM, mean ± standard deviation", "text": "(§1) The in vitro cytotoxicity of the several synthesized compounds was also investigated. […] During the measurements, the fluorescent Resazurin assay as described previously was applied.[19]\n(§2) Cells were purchased from the American Type Culture Collection (ATCC, Manassas, Virginia, USA). Human lung adenocarcinoma A549 cells were maintained in Dulbecco’s modified Eagle’s medium (DMEM), while mouse fibroblast NIH/3T3 and human promyelocytic leukemia HL-60 cells were maintained in Roswell Park Memorial Institute 1640 medium (RPMI-1640) containing 10% FCS. Media were supplemented with 2 mM GlutaMAX, 100 U/mL penicillin, and 100 μg/mL streptomycin (Life Technologies, Carlsbad, California, USA). Cell cultures were maintained at 37 °C in a humidified incubator in an atmosphere of 5% CO2 (Sanyo, Japan).\n(§3) Cytotoxicity of the synthesized molecules was determined on A549, NIH/3T3, and HL-60 cells using the fluorescent Resazurin assay as described previously.[19]\n(§4) Briefly, cells (A549 and NIH/3T3: 6000, HL-60: 120.000 cells/well) were seeded into 96-well plates (Corning Life Sciences) in media and incubated overnight. Test compounds were dissolved in 3-fold amounts of dimethyl sulfoxide (DMSO). Cells were treated with an increasing concentration of test compounds (1–30 μM). […] Cell viability was determined after 72 h incubation. Resazurin reagent (Sigma-Aldrich) was added at a final concentration of 25 μg/mL. After a 2 h incubation for at 37 °C, 5% CO2, fluorescence (530 nm excitation/580 nm emission) was recorded on a multimode microplate reader (Cytofluor4000, PerSeptive Biosytems). Viability was calculated with relation to untreated control cells and blank wells containing media without cells."}, "[2]": {"assay": "In vitro cytotoxicity, fluorescent Resazurin assay, NIH/3T3", "details": "mouse, NIH/3T3 fibroblast cells", "text": "as §1, §2, §3, §4"}, "[3]": {"assay": "In vitro cytotoxicity, fluorescent Resazurin assay, A549", "type": "cell-based", "details": "human, A549 lung adenocarcinoma cells, 72 h incubation, 1–30 μM, mean ± standard deviation"}, "[4]": {"test_system": "human promyelocytic leukemia (HL60) cell line", "assay": "In vitro cytotoxicity, fluorescent Resazurin assay, HL60", "details": "read-out: In vitro cytotoxicity [IC50, μM] HL60, HL60 cells, 72 h incubation, 1–30 μM, mean ± standard deviation", "text": "as §1, §2, §3, §4"}}, "data": [{"molecule": "CCCCNC(c1coc2ccc(C)cc2c1=O)P(=O)(c1ccccc1)c1ccccc1", "note": "(stereo not shown) [1a, 3-[(Butylamino)(diphenylphosphoryl)methyl]-6-methyl-4H-chromen-4-one]", "values": [{"measurement": "melting point", "value": "187 to 188", "unit": "°C"}]}, {"molecule": "Cc1ccc2occ(C(Nc3ccccc3)P(=O)(c3ccccc3)c3ccccc3)c(=O)c2c1", "note": "(stereo not shown) [1b, 3-[(Phenylamino)(diphenylphosphoryl)methyl]-6-methyl-4H-chromen-4-one]", "values": [{"measurement": "melting point", "value": "239 to 240", "unit": "°C"}]}, {"molecule": "COc1ccc(NC(c2coc3ccc(C)cc3c2=O)P(=O)(c2ccccc2)c2ccccc2)cc1", "note": "(stereo not shown) [1c, 3-[(4-Methoxyphenylamino)(diphenylphosphoryl)methyl]-6-methyl-4H-chromen-4-one]", "values": [{"measurement": "melting point", "value": "224 to 225", "unit": "°C"}]}, {"molecule": "Cc1ccc2occ(C(Nc3ccc(Cl)cc3)P(=O)(c3ccccc3)c3ccccc3)c(=O)c2c1", "note": "(stereo not shown) [1d, 3-[(4-Chlorophenylamino)(diphenylphosphoryl)methyl]-6-methyl-4H-chromen-4-one]", "values": [{"measurement": "melting point", "value": "235 to 236", "unit": "°C"}]}, {"molecule": "CCCCN/C=C1/C(=O)c2cc(C)ccc2OC1P(=O)(c1ccccc1)c1ccccc1", "note": "(stereo not shown) [2a, (Z)-3-[(Butylamino)methylene]-2-(diphenylphosphoryl)-6-methylchroman-4-one]", "values": [{"measurement": "melting point", "value": "192 to 193", "unit": "°C"}]}, {"molecule": "Cc1ccc2c(c1)C(=O)/C(=C/Nc1ccccc1)C(P(=O)(c1ccccc1)c1ccccc1)O2", "note": "(stereo not shown) [2b, (Z)-3-[(Phenylamino)methylene]-2-(diphenylphosphoryl)-6-methylchroman-4-one]", "values": [{"measurement": "melting point", "value": "243 to 244", "unit": "°C"}]}, {"molecule": "Cc1ccc2c(c1)C(=O)/C(=C/NC1CCCCC1)C(P(=O)(c1ccccc1)c1ccccc1)O2", "note": "(stereo not shown) [2c, (Z)-3-[(Cyclohexylamino)methylene]-2-(diphenylphosphoryl)-6-methylchroman-4-one]", "values": [{"measurement": "melting point", "value": "198 to 199", "unit": "°C"}]}, {"molecule": "Cc1ccc2c(c1)C(=O)/C(=C/NCc1ccccc1)C(P(=O)(c1ccccc1)c1ccccc1)O2", "note": "(stereo not shown) [2d, (Z)-3-[(Benzylamino)methylene]-2-(diphenylphosphoryl)-6-methylchroman-4-one]", "values": [{"measurement": "melting point", "value": "196 to 197", "unit": "°C"}]}, {"molecule": "Cc1ccc2c(c1)C(=O)/C(=C/NC(c1ccccc1)c1ccccc1)C(P(=O)(c1ccccc1)c1ccccc1)O2", "note": "(stereo not shown) [2e, (Z)-3-[(Benzhydrylamino)methylene]-2-(diphenylphosphoryl)-6-methylchroman-4-one]", "values": [{"measurement": "IC50 at 72 h", "setting": "[1]", "value": "9.91 ± 1.28", "unit": "µM"}, {"measurement": "IC50 at 72 h", "setting": "[2]", "value": "> 30", "unit": "µM"}, {"measurement": "IC50 at 72 h", "setting": "[3]", "value": "> 30", "unit": "µM"}, {"measurement": "melting point", "value": "182 to 183", "unit": "°C"}]}, {"molecule": "Cc1ccc2c(c1)C(=O)/C(=C/NCCCO)C(P(=O)(c1ccccc1)c1ccccc1)O2", "note": "(stereo not shown) [2f, (Z)-3-[(Propanolamino)methylene]-2-(diphenylphosphoryl)-6-methylchroman-4-one]", "values": [{"measurement": "IC50 at 72 h", "setting": "[1]", "value": "27.4 ± 1.13", "unit": "µM"}, {"measurement": "IC50 at 72 h", "setting": "[2]", "value": "> 30", "unit": "µM"}, {"measurement": "IC50 at 72 h", "setting": "[3]", "value": "> 30", "unit": "µM"}, {"measurement": "melting point", "value": "176 to 177", "unit": "°C"}]}, {"molecule": "Cc1ccc2c(c1)C(=O)/C(=C/NCCO)C(P(=O)(c1ccccc1)c1ccccc1)O2", "note": "(stereo not shown) [2g, (Z)-3-[(Ethanolamino)methylene]-2-(diphenylphosphoryl)-6-methylchroman-4-one]", "values": [{"measurement": "IC50 at 72 h", "setting": "[1]", "value": "> 30", "unit": "µM"}, {"measurement": "IC50 at 72 h", "setting": "[2]", "value": "20.7 ± 1.02", "unit": "µM"}, {"measurement": "IC50 at 72 h", "setting": "[3]", "value": "> 30", "unit": "µM"}, {"measurement": "melting point", "value": "181 to 182", "unit": "°C"}]}, {"molecule": "CCCCN/C=C1/C(=O)c2cc(C)ccc2OC1P(=O)(c1ccc(C)cc1)c1ccc(C)cc1", "note": "(stereo not shown) [7a, (Z)-3-[(Butylamino)methylene]-2-(di-p-tolylphosphoryl)-6-methylchroman-4-one]", "values": [{"measurement": "melting point", "value": "186 to 187", "unit": "°C"}]}, {"molecule": "Cc1ccc(P(=O)(c2ccc(C)cc2)C2Oc3ccc(C)cc3C(=O)/C2=C/NC2CCCCC2)cc1", "note": "(stereo not shown) [7b, (Z)-3-[(Cyclohexylamino)methylene]-2-(di-p-tolylphosphoryl)-6-methylchroman-4-one]", "values": [{"measurement": "melting point", "value": "205 to 206", "unit": "°C"}]}, {"molecule": "Cc1ccc(P(=O)(c2ccc(C)cc2)C2Oc3ccc(C)cc3C(=O)/C2=C/NCc2ccccc2)cc1", "note": "(stereo not shown) [7c, (Z)-3-[(Benzylamino)methylene]-2-(di-p-tolylphosphoryl)-6-methylchroman-4-one]", "values": [{"measurement": "melting point", "value": "198 to 199", "unit": "°C"}]}, {"molecule": "CCCCN/C=C1/C(=O)c2cc(C)ccc2OC1P(=O)(c1cc(C)cc(C)c1)c1cc(C)cc(C)c1", "note": "(stereo not shown) [8a, (Z)-2-[Bis(3,5-dimethylphenyl)phosphoryl]-3-[(butylamino)methylene]-6-methyl-chroman-4-one]", "values": [{"measurement": "IC50", "setting": "[4]", "value": "14.8 ± 1.13", "unit": "µM"}, {"measurement": "IC50 at 72 h", "setting": "[1]", "value": "~15", "unit": "µM"}, {"measurement": "IC50 at 72 h", "setting": "[2]", "value": "> 30", "unit": "µM"}, {"measurement": "IC50 at 72 h", "setting": "[3]", "value": "> 30", "unit": "µM"}, {"measurement": "melting point", "value": "145 to 146", "unit": "°C"}]}, {"molecule": "Cc1cc(C)cc(P(=O)(c2cc(C)cc(C)c2)C2Oc3ccc(C)cc3C(=O)/C2=C/NC2CCCCC2)c1", "note": "(stereo not shown) [8c, (Z)-2-[Bis(3,5-dimethylphenyl)phosphoryl]-3-[(cyclohexylamino)methylene]-6-methylchroman-4-one]", "values": [{"measurement": "IC50 at 72 h", "setting": "[1]", "value": "~15", "unit": "µM"}, {"measurement": "IC50 at 72 h", "setting": "[2]", "value": "> 30", "unit": "µM"}, {"measurement": "IC50 at 72 h", "setting": "[3]", "value": "> 30", "unit": "µM"}, {"measurement": "melting point", "value": "155 to 156", "unit": "°C"}]}, {"molecule": "Cc1cc(C)cc(P(=O)(c2cc(C)cc(C)c2)C2Oc3ccc(C)cc3C(=O)/C2=C/NCc2ccccc2)c1", "note": "(stereo not shown) [8d, (Z)-3-[(benzylamino)methylene]-2-[bis(3,5-dimethylphenyl)phosphoryl]-6-methylchroman-4-one]", "values": [{"measurement": "IC50", "setting": "[4]", "value": "13.2 ± 1.32", "unit": "µM"}, {"measurement": "IC50 at 72 h", "setting": "[1]", "value": "~15", "unit": "µM"}, {"measurement": "IC50 at 72 h", "setting": "[2]", "value": "14.2 ± 1.12", "unit": "µM"}, {"measurement": "IC50 at 72 h", "setting": "[3]", "value": "18.5 ± 1.08", "unit": "µM"}]}, {"molecule": "CCCCN/C=C1/C(=O)c2cc(C)ccc2OC1P(=O)(c1ccc2ccccc2c1)c1ccc2ccccc2c1", "note": "(stereo not shown) [9a, (Z)-3-[(Butylamino)methylene]-2-[di(naphthalen-2-yl)phosphoryl]-6-methylchroman-4-one]", "values": [{"measurement": "melting point", "value": "192 to 193", "unit": "°C"}]}, {"molecule": "Cc1ccc2c(c1)C(=O)/C(=C/NC1CCCCC1)C(P(=O)(c1ccc3ccccc3c1)c1ccc3ccccc3c1)O2", "note": "(stereo not shown) [9b, (Z)-3-[(Cyclohexylamino)methylene]-2-[di(naphthalen-2-yl)phosphoryl]-6-methylchroman-4-one]", "values": [{"measurement": "melting point", "value": "171 to 172", "unit": "°C"}]}, {"molecule": "CC(C)C[C@H](NC(=O)[C@H](Cc1ccccc1)NC(=O)c1cnccn1)B(O)O", "note": "[bortezomib, reference compound]", "values": [{"measurement": "IC50 at 72 h", "setting": "[1]", "value": 0.00742, "unit": "µM"}]}, {"molecule": "Cc1ccc2occ(C(O)P(=O)(c3ccccc3)c3ccccc3)c(=O)c2c1", "note": "(stereo not shown) [compound 3, 3-[(Diphenylphosphoryl)(hydroxy)methyl]-6-methyl-4H-chromen-4-one]", "values": [{"measurement": "melting point", "value": "190 to 192", "unit": "°C"}]}, {"molecule": "Cc1ccc(P(=O)(c2ccc(C)cc2)C(Nc2ccccc2)c2coc3ccc(C)cc3c2=O)cc1", "note": "(stereo not shown) [compound 4, 3-[(Phenylamino)(di-p-tolylphosphoryl)methyl]-6-methyl-4H-chromen-4-one]", "values": [{"measurement": "melting point", "value": "245 to 246", "unit": "°C"}]}, {"molecule": "Cc1cc(C)cc(P(=O)(c2cc(C)cc(C)c2)C(Nc2ccccc2)c2coc3ccc(C)cc3c2=O)c1", "note": "(stereo not shown) [compound 5, 3-{(Phenylamino)[bis(3,5-dimethylphenyl)phosphoryl]methyl}-6-methyl-4H-chromen-4-one]", "values": [{"measurement": "melting point", "value": "229 to 230", "unit": "°C"}]}, {"molecule": "Cc1ccc2occ(C(Nc3ccccc3)P(=O)(c3ccc4ccccc4c3)c3ccc4ccccc4c3)c(=O)c2c1", "note": "(stereo not shown) [compound 6, 3-{(Phenylamino)[di(naphthalen-2-yl)phosphoryl]methyl}-6-methyl-4H-chromen-4-one]", "values": [{"measurement": "melting point", "value": "223 to 224", "unit": "°C"}]}]}
